# Source: ChEMBL document CHEMBL5053557, “Discovery of Novel Dual-Target Inhibitor of Bromodomain-Containing Protein 4/Casein Kinase 2 Inducing Apoptosis and Autophagy-Associated Cell Death for Triple-Negative Breast Cancer Therapy” (J Med Chem, 2021)
# pIC50: −log10 of the molar value. Active and inactive are the calls of the source. The calls are words filed in the database; no cut-off is given here.
# Legend:
# [1] = system: Mus musculus; experiment: Toxicity in nude BALB/c mouse xenografted with human MDA-MB-468 cells assessed as morphological changes in kidney at 25 to 50 mg/kg, po administered once daily for 19 days and measured every 3 days by H and E staining based assay; format: organism-based; conditions: in vivo, 456 h, dose 25-50 mg/kg, time 19 day
# [2] = system: Mus musculus; experiment: Toxicity in nude BALB/c mouse xenografted with human MDA-MB-468 cells assessed as morphological changes in heart at 25 to 50 mg/kg, po administered once daily for 19 days and measured every 3 days by H and E staining based assay; format: organism-based; conditions: in vivo, 456 h, dose 25-50 mg/kg, time 19 day
# [3] = system: MDA-MB-231; experiment: Induction of apoptosis in human MDA-MB-231 cells assessed as down regulation of Bcl2 after 24 hrs by Western blot analysis; format: functional, cell-based; conditions: dose 2.5-10 µM
# [4] = system: MDA-MB-468; experiment: Induction of autophagy in human MDA-MB-468 cells at 5 uM preincubated with 3-MA for 1 hr followed by compound addition and measured after 24 hrs by fluorescence microscopic analysis; format: functional, cell-based
# [5] = system: MDA-MB-468; experiment: Induction of apoptosis in human MDA-MB-468 cells after 24 hrs by Hoechst 33258 staining fluorescence microscopic analysis; format: functional, cell-based; conditions: dose 2.5-10 µM
# [6] = system: MDA-MB-231; experiment: Antitumor activity against human MDA-MB-231 cells xenografted in nude BALB/c mouse assessed as tumor growth inhibition at 25 to 50 mg/kg, po administered once daily for 19 days and measured every 3 days by Ki-67 staining based immunohistochemical analysis; format: functional, organism-based; conditions: dose lower […], dose upper 50.0 mg/kg, time 19.0 day
# [7] = system: MDA-MB-231; experiment: Inhibition of colony formation in human MDA-MB-231 cells at 5 uM after 7 days in presence of 3-MA by crystal violet staining based assay; format: functional, cell-based; conditions: time 7.0 day
# [8] = system: MDA-MB-468; experiment: Induction of apoptosis in human MDA-MB-468 cells assessed as up regulation of cleaved caspase 3 after 24 hrs by Western blot analysis; format: functional, cell-based; conditions: dose 2.5-10 µM
# [9] = system: Mus musculus; experiment: Down regulation of c-Myc expression in BALB/c SCID mouse xenogrfted with human MDA-MB-231 cells at 25 to 50 mg/kg, po administered once daily for 19 days by immunohistochemistry analysis; format: functional, organism-based; conditions: dose lower […], dose upper 50.0 mg/kg, time 19.0 day
# [10] = system: MDA-MB-468; experiment: Induction of apoptosis in human MDA-MB-468 cells after 24 hrs by Annexin V-FITC/propidium iodide staining based flow cytometry; format: functional, cell-based; conditions: dose 2.5-10 µM
# [11] = molecular target: T1, Bromodomain-containing protein 4 (Homo sapiens, UniProt O60885); experiment: Inhibition of BRD4 BD1 (unknown origin) incubated for 2 hrs by TR-FRET assay
# [12] = system: MDA-MB-231; experiment: Antitumor activity against human MDA-MB-231 cells xenografted in po dosed nude BALB/c mouse assessed as tumor growth inhibition administered once daily for 19 days and measured every 3 days; format: functional, organism-based; conditions: dose lower […], dose upper 50.0 mg/kg, time 19.0 day
# [13] = system: MDA-MB-231; experiment: Induction of autophagy in human MDA-MB-231 cells harboring GFP-mRFP-LC3 assessed as autophagic flux at 5 uM after 24 hrs by fluorescence microscopic analysis; format: functional, cell-based
# [14] = system: MDA-MB-231; experiment: Induction of apoptosis in human MDA-MB-231 cells after 24 hrs by Annexin V-FITC/propidium iodide staining based flow cytometry; format: functional, cell-based; conditions: dose 2.5-10 µM
# [15] = system: MDA-MB-231; experiment: Antitumor activity against human MDA-MB-231 cells xenografted in nude BALB/c mouse assessed as tumor growth inhibition at 50 mg/kg, po administered once daily for 19 days and measured every 3 days; format: functional; conditions: MDA-MB-231, 456 h, time 19 day, read-out: TGI
# [16] = system: MDA-MB-468; experiment: Induction of apoptosis in human MDA-MB-468 cells assessed as down regulation of Bcl2 after 24 hrs by Western blot analysis; format: functional, cell-based; conditions: dose 2.5-10 µM
# [17] = system: Mus musculus; experiment: Toxicity in nude BALB/c mouse xenografted with human MDA-MB-468 cells assessed as morphological changes in lung at 25 to 50 mg/kg, po administered once daily for 19 days and measured every 3 days by H and E staining based assay; format: organism-based; conditions: in vivo, 456 h, dose 25-50 mg/kg, time 19 day
# [18] = system: MDA-MB-231; experiment: Antiproliferative activity against JQ-1 resistant human MDA-MB-231 cells incubated for 24 hrs by MTT assay; format: functional, cell-based
# [19] = system: MDA-MB-468; experiment: Induction of autophagy in human MDA-MB-468 cells harboring GFP-mRFP-LC3 assessed as up regulation of LC3II level at 2.5 to 10 uM after 24 hrs by Western blot analysis; format: functional, cell-based; conditions: dose 2.5-10 µM
# [20] = system: Mus musculus; experiment: Toxicity in nude BALB/c mouse xenografted with human MDA-MB-231 cells assessed as morphological changes in kidney at 25 to 50 mg/kg, po administered once daily for 19 days and measured every 3 days by H and E staining based assay; format: organism-based; conditions: in vivo, 456 h, dose 25-50 mg/kg, time 19 day
# [21] = molecular target: T1, Bromodomain-containing protein 4; experiment: Inhibition of BRD4 BD1/BD2 (unknown origin) incubated for 2 hrs by TR-FRET assay
# [22] = system: MDA-MB-231; experiment: Induction of apoptosis in human MDA-MB-231 cells assessed as up regulation of Bax after 24 hrs by Western blot analysis; format: functional, cell-based; conditions: dose 2.5-10 µM
# [23] = system: MDA-MB-468; experiment: Inhibition of colony formation in human MDA-MB-468 cells after 7 days by crystal violet staining based assay; format: functional, cell-based; conditions: dose 2.5-10 µM, time 7.0 day
# [24] = system: MDA-MB-468; experiment: Induction of apoptosis in human MDA-MB-468 cells assessed as up regulation of Bax after 24 hrs by Western blot analysis; format: functional, cell-based; conditions: dose 2.5-10 µM
# [25] = Cmax in Sprague-Dawley rat at 10 mg/kg, po by LC-MS analysis; format: ADME, organism-based; set-up: dose 10 mg/kg, route po; conditions: in vivo
# [26] = system: MDA-MB-468; experiment: Induction of autophagy in human MDA-MB-468 cells harboring GFP-mRFP-LC3 assessed as down regulation of p62 level at 5 uM after 24 hrs by Western blot analysis; format: functional, cell-based
# [27] = system: Mus musculus; experiment: Toxicity in nude BALB/c mouse xenografted with human MDA-MB-468 cells assessed as morphological changes in liver at 25 to 50 mg/kg, po administered once daily for 19 days and measured every 3 days by H and E staining based assay; format: organism-based; conditions: in vivo, 456 h, dose 25-50 mg/kg, time 19 day
# [28] = molecular target: Bromodomain-containing protein 3 (Homo sapiens, UniProt Q15059); experiment: Inhibition of BRD3 BD2 (unknown origin) incubated for 2 hrs by TR-FRET assay
# [29] = system: Mus musculus; experiment: Down regulation of phosphorylation of AKT at S129 residue expression in BALB/c SCID mouse xenogrfted with human MDA-MB-231 cells at 25 to 50 mg/kg, po administered once daily for 19 days by immunohistochemistry analysis; format: functional, organism-based; conditions: dose lower […], dose upper 50.0 mg/kg, time 19.0 day
# [30] = system: MDA-MB-231; experiment: Induction of autophagy in human MDA-MB-231 cells harboring GFP-mRFP-LC3 assessed as up regulation of LC3II level at 2.5 to 10 uM after 24 hrs by Western blot analysis; format: functional, cell-based; conditions: dose 2.5-10 µM
# [31] = Half life in Sprague-Dawley rat at 1 mg/kg, iv by LC-MS analysis; format: ADME, organism-based; conditions: in vivo
# [32] = molecular target: Bromodomain testis-specific protein (Homo sapiens, UniProt Q58F21); experiment: Inhibition of BRDT BD2 (unknown origin) incubated for 2 hrs by TR-FRET assay
# [33] = system: MDA-MB-231; experiment: Induction of apoptosis in human MDA-MB-231 cells assessed as up regulation of cleaved caspase 3 after 24 hrs by Western blot analysis; format: functional, cell-based; conditions: dose 2.5-10 µM
# [34] = system: MDA-MB-231; experiment: Induction of autophagy in human MDA-MB-231 cells at 5 uM preincubated with 3-MA for 1 hr followed by compound addition and measured after 24 hrs by fluorescence microscopic analysis; format: functional, cell-based
# [35] = system: Mus musculus; experiment: Down regulation of c-Myc expression in BALB/c SCID mouse xenogrfted with human MDA-MB-231 cells at 25 to 50 mg/kg, po administered once daily for 19 days by Western blot analysis; format: functional, organism-based; conditions: dose lower […], dose upper 50.0 mg/kg, time 19.0 day
# Sequence of Bromodomain-containing protein 3 (Q15059 whole entry): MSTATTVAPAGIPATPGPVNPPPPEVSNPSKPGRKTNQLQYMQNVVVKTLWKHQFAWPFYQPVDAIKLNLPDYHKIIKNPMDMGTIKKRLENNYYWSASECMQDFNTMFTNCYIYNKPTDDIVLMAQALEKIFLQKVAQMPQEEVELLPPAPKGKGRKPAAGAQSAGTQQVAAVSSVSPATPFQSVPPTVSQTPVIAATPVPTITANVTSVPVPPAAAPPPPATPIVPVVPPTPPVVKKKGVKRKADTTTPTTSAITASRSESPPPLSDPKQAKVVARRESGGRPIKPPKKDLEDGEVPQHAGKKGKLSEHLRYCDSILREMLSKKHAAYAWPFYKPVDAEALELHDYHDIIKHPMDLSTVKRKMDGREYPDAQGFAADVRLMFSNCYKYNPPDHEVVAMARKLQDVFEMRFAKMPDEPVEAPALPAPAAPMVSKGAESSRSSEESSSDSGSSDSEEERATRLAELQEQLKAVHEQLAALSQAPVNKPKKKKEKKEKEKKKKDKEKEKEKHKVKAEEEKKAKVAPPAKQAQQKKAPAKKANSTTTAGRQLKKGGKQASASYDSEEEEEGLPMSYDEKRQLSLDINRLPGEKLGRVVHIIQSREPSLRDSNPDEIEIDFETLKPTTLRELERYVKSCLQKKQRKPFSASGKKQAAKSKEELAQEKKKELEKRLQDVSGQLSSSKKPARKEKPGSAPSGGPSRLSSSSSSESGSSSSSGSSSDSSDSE
compound,measurement,setting,value
COc1cc(OC)c2c(=O)[nH]c(-c3ccc(OCC(=O)Nc4ccc(N5CCN(C)CC5)c(Cl)c4)cc3)nc2c1,Activity,[1],Non-Toxic
same,Activity,[2],Non-Toxic
same,Activity,[3],Dose-dependent effect
same,Activity,[4],inactive
same,Activity,[5],Dose-dependent effect
same,Activity,[6],Active
same,inhibition,[7],inactive
same,Activity,[8],Dose-dependent effect
same,Activity,[9],Active
same,Activity,[10],Dose-dependent effect
same,pIC50,[11],6.71
same,Activity,[12],Active
same,Activity,[13],Active
same,Activity,[14],Dose-dependent effect
same,inhibition in vivo at 50 mg/kg,[15],63.8%
same,Activity,[16],Dose-dependent effect
same,Activity,[17],Non-Toxic
same,Activity,[18],Active
same,Activity,[19],Active
same,Activity,[20],Non-Toxic
same,pIC50,[21],6.74
same,Activity,[22],Dose-dependent effect
same,inhibition,[23],Dose-dependent effect
same,Activity,[24],Dose-dependent effect
same,Cmax,[25],206 ng/mL
same,Activity,[26],Active
same,Activity,[27],Non-Toxic
same,pIC50,[28],< 5.00
same,Activity,[29],Active
same,Activity,[30],Active
same,half-life,[31],4.21 h
same,pIC50,[32],< 5.00
same,Activity,[33],Dose-dependent effect
same,Activity,[34],inactive
same,Activity,[35],Active
